Experimental data reported in patent US6380179B1, “Method for treatment of alopecia” (Sankyo Company, Limited, priority 1997, dated 2002).

Key:
[1] = system: dihydrotestosterone (DHT) and testosterone (T) levels in blood; assay: Effects for lowering the dihydrotestosterone level in human blood after oral administration; type: in vivo; conditions: n=4 to 6
Procedure: Effects for Lowering the Dihydrosterone Level in Human Blood
To a human body, 1 to 10 mg/body of Compound I or 5 mg/body of Finasteride was orally administered and the dihydrotestosterone (DHT) and testosterone (T) levels in blood were measured. Their ratios (DHT/T) before administration (pre) and after passage of time (10 and 18 hours) were calculated, from which (DHT/T)/(DHT/T)pre was calculated.

[2] = biological target: T1, recombinant type I human 5α-reductase (Homo sapiens, UniProt P18405); assay: Inhibitory activity against recombinant type I human 5α-reductase (conversion of 14C testosterone to 14C 5α-dihydrotestosterone); type: biochemical; conditions: recombinant human type I 5α-reductase, pH 7.5, 1 μM 14C testosterone, 37° C. 15 minutes; Table 1
T1 construct: In order to clone the entirely translated regions of type I and type II human 5α-reductases by a polymerase chain reaction (PCR) method; made in house; host or cells: COS-1 cells transiently transfected with pME18sH5R1; resuspended 10000×g pellet of the homogenate used as the enzyme
T1 sequence (P18405 1-259): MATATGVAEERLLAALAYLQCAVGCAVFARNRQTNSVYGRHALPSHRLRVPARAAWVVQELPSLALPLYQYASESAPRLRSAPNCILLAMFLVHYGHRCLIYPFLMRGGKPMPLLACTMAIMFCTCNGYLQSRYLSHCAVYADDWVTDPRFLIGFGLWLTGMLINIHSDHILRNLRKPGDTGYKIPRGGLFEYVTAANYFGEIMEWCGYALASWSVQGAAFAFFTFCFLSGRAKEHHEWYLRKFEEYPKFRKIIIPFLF
Procedure: Method for Determination of the Inhibitory Activity Against Each of Type I and Type II Human 5α-reductases
(1) Preparation of recombinant human type I and type II 5α-reductases
In order to clone the entirely translated regions of type I and type II human 5α-reductases by a polymerase chain reaction (PCR) method, primers of Sequence ID. Nos. 1,2,3 and 4 were prepared using an Oligo 1000 DNA synthesizer (product of BECKMAN Co., Ltd.) on the basis of the base sequences of type I and type II human 5α-reductases described in published reports (Stefan. A, et al., Proc. Natl. Acad. Sci. USA, 87, 3640-3644(1990). Stefan. A, et al. Nature, 354. 159-161(1991)).
PCR was carried out using 1 μl of cDNA. 5 μl of a PCR buffer attached. 1 μl of a 10 mM dNTP mixed solution. 1 μl each of the above-described sense and antisense-primers at a concentration of 20 μl M. 1 μl of […] of TaKaRa Taq polymerase and 40 μl of distilled water to give a reaction volume of 50 μl. For PCR, a cycle of the reactions at 94° C. for 20 seconds, at 55° C. for 1 minute and at 72° C. for 1 minute was repeated 25 times, followed by storing at 4° C. […]
The protein content was measured by the Bradford method (Bio-Rad Protein Assay of Biorad) by using bovine gamma-globulin (bovine cohn fraction II, product of Sigma) as a standard product. […]

[3] = system: monkey model animal of male pattern baldness; conditions: cited from earlier work
[4] = system: human baldness; conditions: clinical test; cited from earlier work

| Structure (SMILES) | (DHT/T)/(DHT/T)pre ([1]; 1 mg/body, after 10 hours) | (DHT/T)/(DHT/T)pre ([1]; 1 mg/body, after 18 hours) | (DHT/T)/(DHT/T)pre ([1]; 5 mg/body, after 10 hours) | (DHT/T)/(DHT/T)pre ([1]; 5 mg/body, after 18 hours) | (DHT/T)/(DHT/T)pre ([1]; 10 mg/body, after 10 hours) | (DHT/T)/(DHT/T)pre ([1]; 10 mg/body, after 18 hours) | IC50 [2] | effectiveness on baldness [3] | effects on human baldness [4] |
| --- | --- | --- | --- | --- | --- | --- | --- | --- | --- |
| COc1ccc(C(C)(C)NC(=O)[C@H]2CC[C@H]3[C@@H]4CC[C@H]5NC(=O)C=C[C@]5(C)[C@H]4CC[C@]23C)cc1 [Compound of Reference Example 1, N-[1-Methyl1-(4-methoxyphenyl)ethyl]-3-oxo4-aza-5α-androsto-1-ene-17β-carboxamide] | 0.518 | 0.525 | 0.411 | 0.376 | 0.279 | 0.284 | 49 nM | – | – |
| CC(C)(C)NC(=O)[C@H]1CC[C@H]2[C@@H]3CC[C@H]4NC(=O)C=C[C@]4(C)[C@H]3CC[C@]12C [Finasteride, reference compound] | – | – | 0.553 | 0.461 | – | – | 700 nM | effective in the treatment of baldness | have been recognized |
| CC(C)CCCC(C)C1CCC2C3C(C)CC4N(C)C(=O)CCC4(C)C3CCC12C (stereo not shown) [MK386] | – | – | – | – | – | – | – | not recognized | – |
